Assay results from the supplement of paper PMC10883282.

Columns and labels:
Assay in all cases: relative viability vs DMSO control (72 h) (fraction); higher = more viable cells
RD-ES = tested on: RD-ES
Method in brief: (§1)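 Sarcoma cell lines were plated in 384 wells to reach 80–90% confluence, treated after 24 h with 2.5 µl of serially diluted compound and held 72 h at 37 °C, 5% CO2. Relative viability was taken as percent growth from ATPLite readings, averaged over up to triplicate wells. The values were rescaled so that 1 marks full and 0 marks none.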

SW982 = tested on: SW982
Method in brief: as §1

HT1080 = tested on: HT1080
Method in brief: as §1

SW1353 = tested on: SW1353
Method in brief: as §1

G401 = tested on: G401
Method in brief: as §1

VA-ES-BJ = tested on: VA-ES-BJ
Method in brief: as §1

SK-LMS-1 = tested on: SK-LMS-1
Method in brief: as §1

SK-ES-1 = tested on: SK-ES-1
Method in brief: as §1

RD = tested on: RD
Method in brief: as §1

KHOS-240S = tested on: KHOS-240S
Method in brief: as §1

MES-SA = tested on: MES-SA
Method in brief: as §1

SYO-1 = tested on: SYO-1
Method in brief: as §1

Cc1cccc(-c2[nH]c(CNc3ccccc3F)nc2-c2ccc3ncnn3c2)n1 [Vactosertib]
Conditions	relative viability
G401, 0.00017 µM	0.942
G401, 0.00051 µM	0.937
G401, 0.00152 µM	0.969
G401, 0.00457 µM	0.984
G401, 0.01372 µM	0.97
G401, 0.04115 µM	0.937
G401, 0.1235 µM	0.9496
G401, 0.3704 µM	0.978
G401, 1.111 µM	0.9638
G401, 3.333 µM	0.967
G401, 10 µM	0.923
HT1080, 0.00017 µM	1.02
HT1080, 0.00051 µM	1
HT1080, 0.00152 µM	0.967
HT1080, 0.00457 µM	1.01
HT1080, 0.01372 µM	1.042
HT1080, 0.04115 µM	1.01
HT1080, 0.1235 µM	1.04
HT1080, 0.3704 µM	1.05
HT1080, 1.111 µM	1.02
HT1080, 3.333 µM	1.02
HT1080, 10 µM	1.01
KHOS-240S, 0.00017 µM	1.02
KHOS-240S, 0.00051 µM	1.04
KHOS-240S, 0.00152 µM	1.03
KHOS-240S, 0.00457 µM	1.02
KHOS-240S, 0.01372 µM	1.03
KHOS-240S, 0.04115 µM	1
KHOS-240S, 0.1235 µM	0.992
KHOS-240S, 0.3704 µM	0.966
KHOS-240S, 1.111 µM	0.952
KHOS-240S, 3.333 µM	0.885
KHOS-240S, 10 µM	0.708
MES-SA, 0.00017 µM	0.892
MES-SA, 0.00051 µM	0.881
MES-SA, 0.00152 µM	0.885
MES-SA, 0.00457 µM	0.866
MES-SA, 0.01372 µM	0.877
MES-SA, 0.04115 µM	0.901
MES-SA, 0.1235 µM	0.894
MES-SA, 0.3704 µM	0.897
MES-SA, 1.111 µM	0.842
MES-SA, 3.333 µM	0.873
MES-SA, 10 µM	0.861
RD, 0.00017 µM	1.07
RD, 0.00051 µM	1.06
RD, 0.00152 µM	1.06
RD, 0.00457 µM	1.09
RD, 0.01372 µM	1.07
RD, 0.04115 µM	1.09
RD, 0.1235 µM	1.07
RD, 0.3704 µM	1.09
RD, 1.111 µM	1.09
RD, 3.333 µM	1.07
RD, 10 µM	1.09
RD-ES, 0.00017 µM	0.9791
RD-ES, 0.00051 µM	0.97
RD-ES, 0.00152 µM	0.974
RD-ES, 0.00457 µM	0.958
RD-ES, 0.01372 µM	0.97
RD-ES, 0.04115 µM	0.973
RD-ES, 0.1235 µM	0.971
RD-ES, 0.3704 µM	0.964
RD-ES, 1.111 µM	0.945
RD-ES, 3.333 µM	0.925
RD-ES, 10 µM	0.865
SK-ES-1, 0.00017 µM	0.986
SK-ES-1, 0.00051 µM	0.97
SK-ES-1, 0.00152 µM	0.98
SK-ES-1, 0.00457 µM	0.974
SK-ES-1, 0.01372 µM	1.02
SK-ES-1, 0.04115 µM	1
SK-ES-1, 0.1235 µM	1.04
SK-ES-1, 0.3704 µM	1.02
SK-ES-1, 1.111 µM	0.964
SK-ES-1, 3.333 µM	1.01
SK-ES-1, 10 µM	0.898
SK-LMS-1, 0.00017 µM	0.968
SK-LMS-1, 0.00051 µM	0.963
SK-LMS-1, 0.00152 µM	0.981
SK-LMS-1, 0.00457 µM	0.982
SK-LMS-1, 0.01372 µM	0.984
SK-LMS-1, 0.04115 µM	0.978
SK-LMS-1, 0.1235 µM	0.95
SK-LMS-1, 0.3704 µM	0.918
SK-LMS-1, 1.111 µM	0.988
SK-LMS-1, 3.333 µM	0.992
SK-LMS-1, 10 µM	0.96
SW982, 0.00017 µM	0.9904
SW982, 0.00051 µM	1.02
SW982, 0.00152 µM	0.999
SW982, 0.00457 µM	0.998
SW982, 0.01372 µM	0.9987
SW982, 0.04115 µM	1.03
SW982, 0.1235 µM	1.01
SW982, 0.3704 µM	0.984
SW982, 1.111 µM	1
SW982, 3.333 µM	1.02
SW982, 10 µM	0.936
SW1353, 0.00017 µM	0.904
SW1353, 0.00051 µM	0.964
SW1353, 0.00152 µM	0.89
SW1353, 0.00457 µM	0.911
SW1353, 0.01372 µM	0.947
SW1353, 0.04115 µM	0.953
SW1353, 0.1235 µM	0.96
SW1353, 0.3704 µM	0.946
SW1353, 1.111 µM	0.968
SW1353, 3.333 µM	0.893
SW1353, 10 µM	0.875
SYO-1, 0.00017 µM	0.9167
SYO-1, 0.00051 µM	0.925
SYO-1, 0.00152 µM	0.929
SYO-1, 0.00457 µM	0.895
SYO-1, 0.01372 µM	0.894
SYO-1, 0.04115 µM	0.872
SYO-1, 0.1235 µM	0.86
SYO-1, 0.3704 µM	0.808
SYO-1, 1.111 µM	0.773
SYO-1, 3.333 µM	0.697
SYO-1, 10 µM	0.591
VA-ES-BJ, 0.00017 µM	1
VA-ES-BJ, 0.00051 µM	1
VA-ES-BJ, 0.00152 µM	1.006
VA-ES-BJ, 0.00457 µM	1.02
VA-ES-BJ, 0.01372 µM	1.026
VA-ES-BJ, 0.04115 µM	1.04
VA-ES-BJ, 0.1235 µM	1.038
VA-ES-BJ, 0.3704 µM	1.08
VA-ES-BJ, 1.111 µM	1.11
VA-ES-BJ, 3.333 µM	1.11
VA-ES-BJ, 10 µM	1.11
